# Data published in paper PMC6054628.
# Key:
# [1] = Head-to-tail native chemical ligation in two-module microfluidic flow: SEAon peptide amide rearranged to SEAE thioester (pH 1, TCEP, 60 min, 90 or 65 C), then MPAA (0.4 M)/Na2HPO4 (0.2 M) pH 7.3 cyclisation onto N-terminal Cys; conditions: water (phosphate buffer, MPAA, TCEP; decane segmented carrier; 6 M Gn.HCl for 4l-p), 0.6 mM, 37.0 °C, 2 steps
# [2] = Head-to-tail native chemical ligation in two-module microfluidic flow: SEAon peptide amide rearranged to SEAE thioester (pH 1, TCEP, 60 min, 90 or 65 C), then MPAA (0.4 M)/Na2HPO4 (0.2 M) pH 7.3 cyclisation onto N-terminal Cys, 4 min; conditions: 30-membered ring, water (phosphate buffer, MPAA, TCEP; decane segmented carrier), 0.6 mM, 37.0 °C, 0.067 h, 2 steps, scale: %
# [3] = the molecule shown is the open-chain precursor, 54-membered ring, 0.25 h
molecule,measurement,setting,value
CC[C@H](C)[C@@H]1NC(=O)[C@H](CS)NC(=O)[C@H](CC(C)C)NC(=O)CNC(=O)[C@H](Cc2c[nH]cn2)NC(=O)[C@H](C(C)C)NC(=O)[C@@H]2CCCN2C(=O)CNC(=O)[C@H](CC(=O)O)NC(=O)[C@H](CC(C)C)NC1=O [H-CILDGPVHGL-SEAon (via SEAE thioester)],"ring closure, yield over several steps","[1]; from CC[C@H](C)[C@H](NC(=O)[C@@H](N)CS)C(=O)N[C@@H](CC(C)C)C(=O)N[C@@H](CC(=O)O)C(=O)NCC(=O)N1CCC[C@H]1C(=O)N[C@H](C(=O)N[C@@H](Cc1c[nH]cn1)C(=O)NCC(=O)N[C@@H](CC(C)C)C(=O)SCCNCCS)C(C)C, 30-membered ring, 0.067 h",64%
same,"ring closure, conversion by HPLC",[2]; from CC[C@H](C)[C@H](NC(=O)[C@@H](N)CS)C(=O)N[C@@H](CC(C)C)C(=O)N[C@@H](CC(=O)O)C(=O)NCC(=O)N1CCC[C@H]1C(=O)N[C@H](C(=O)N[C@@H](Cc1c[nH]cn1)C(=O)NCC(=O)N[C@@H](CC(C)C)C(=O)SCCNCCS)C(C)C,80
CC[C@H](C)[C@@H]1NC(=O)[C@H](CS)NC(=O)[C@H](C(C)C)NC(=O)CNC(=O)[C@H](Cc2c[nH]cn2)NC(=O)[C@H](C(C)C)NC(=O)[C@@H]2CCCN2C(=O)CNC(=O)[C@H](CC(=O)O)NC(=O)[C@H](CC(C)C)NC1=O [H-CILDGPVHGV-SEAon (via SEAE thioester)],"ring closure, yield over several steps","[1]; from CC[C@H](C)[C@H](NC(=O)[C@@H](N)CS)C(=O)N[C@@H](CC(C)C)C(=O)N[C@@H](CC(=O)O)C(=O)NCC(=O)N1CCC[C@H]1C(=O)N[C@H](C(=O)N[C@@H](Cc1c[nH]cn1)C(=O)NCC(=O)N[C@H](C(=O)SCCNCCS)C(C)C)C(C)C, 30-membered ring, 0.067 h",37%
same,"ring closure, conversion by HPLC",[2]; from CC[C@H](C)[C@H](NC(=O)[C@@H](N)CS)C(=O)N[C@@H](CC(C)C)C(=O)N[C@@H](CC(=O)O)C(=O)NCC(=O)N1CCC[C@H]1C(=O)N[C@H](C(=O)N[C@@H](Cc1c[nH]cn1)C(=O)NCC(=O)N[C@H](C(=O)SCCNCCS)C(C)C)C(C)C,43
CC[C@H](C)[C@@H]1NC(=O)CNC(=O)[C@H](Cc2c[nH]cn2)NC(=O)[C@H](C(C)C)NC(=O)CNC(=O)[C@H](CCC(=O)O)NC(=O)[C@H](CCCCN)NC(=O)[C@H](CC(C)C)NC(=O)[C@H]([C@@H](C)CC)NC(=O)[C@H](CS)NC1=O [H-CILKEGVHGI-SEAon (via SEAE thioester)],"ring closure, yield over several steps","[1]; from CC[C@H](C)[C@H](NC(=O)[C@@H](N)CS)C(=O)N[C@@H](CC(C)C)C(=O)N[C@@H](CCCCN)C(=O)N[C@@H](CCC(=O)O)C(=O)NCC(=O)N[C@H](C(=O)N[C@@H](Cc1c[nH]cn1)C(=O)NCC(=O)N[C@H](C(=O)SCCNCCS)[C@@H](C)CC)C(C)C, 30-membered ring, 0.067 h",51%
same,"ring closure, conversion by HPLC",[2]; from CC[C@H](C)[C@H](NC(=O)[C@@H](N)CS)C(=O)N[C@@H](CC(C)C)C(=O)N[C@@H](CCCCN)C(=O)N[C@@H](CCC(=O)O)C(=O)NCC(=O)N[C@H](C(=O)N[C@@H](Cc1c[nH]cn1)C(=O)NCC(=O)N[C@H](C(=O)SCCNCCS)[C@@H](C)CC)C(C)C,96
CC[C@H](C)[C@@H]1NC(=O)[C@H](CS)NC(=O)[C@@H]2CCCN2C(=O)CNC(=O)[C@H](Cc2c[nH]cn2)NC(=O)[C@H](C(C)C)NC(=O)CNC(=O)[C@H](CCC(=O)O)NC(=O)[C@H](CCCCN)NC(=O)[C@H](CC(C)C)NC1=O [H-CILKEGVHGP-SEAon (via SEAE thioester)],"ring closure, yield over several steps","[1]; from CC[C@H](C)[C@H](NC(=O)[C@@H](N)CS)C(=O)N[C@@H](CC(C)C)C(=O)N[C@@H](CCCCN)C(=O)N[C@@H](CCC(=O)O)C(=O)NCC(=O)N[C@H](C(=O)N[C@@H](Cc1c[nH]cn1)C(=O)NCC(=O)N1CCC[C@H]1C(=O)SCCNCCS)C(C)C, 30-membered ring, 0.067 h",38%
same,"ring closure, conversion by HPLC",[2]; from CC[C@H](C)[C@H](NC(=O)[C@@H](N)CS)C(=O)N[C@@H](CC(C)C)C(=O)N[C@@H](CCCCN)C(=O)N[C@@H](CCC(=O)O)C(=O)NCC(=O)N[C@H](C(=O)N[C@@H](Cc1c[nH]cn1)C(=O)NCC(=O)N1CCC[C@H]1C(=O)SCCNCCS)C(C)C,70
CC[C@H](C)[C@@H]1NC(=O)[C@H](CS)NC(=O)[C@H]([C@@H](C)O)NC(=O)CNC(=O)[C@H](Cc2c[nH]cn2)NC(=O)[C@H](C(C)C)NC(=O)CNC(=O)[C@H](CCC(=O)O)NC(=O)[C@H](CCCCN)NC(=O)[C@H](CC(C)C)NC1=O [H-CILKEGVHGT-SEAon (via SEAE thioester)],"ring closure, yield over several steps","[1]; from CC[C@H](C)[C@H](NC(=O)[C@@H](N)CS)C(=O)N[C@@H](CC(C)C)C(=O)N[C@@H](CCCCN)C(=O)N[C@@H](CCC(=O)O)C(=O)NCC(=O)N[C@H](C(=O)N[C@@H](Cc1c[nH]cn1)C(=O)NCC(=O)N[C@H](C(=O)SCCNCCS)[C@@H](C)O)C(C)C, 30-membered ring, 0.067 h",49%
same,"ring closure, conversion by HPLC",[2]; from CC[C@H](C)[C@H](NC(=O)[C@@H](N)CS)C(=O)N[C@@H](CC(C)C)C(=O)N[C@@H](CCCCN)C(=O)N[C@@H](CCC(=O)O)C(=O)NCC(=O)N[C@H](C(=O)N[C@@H](Cc1c[nH]cn1)C(=O)NCC(=O)N[C@H](C(=O)SCCNCCS)[C@@H](C)O)C(C)C,73
CC[C@H](C)[C@@H]1NC(=O)[C@H](CS)NC(=O)[C@H](C(C)C)NC(=O)CNC(=O)[C@H](Cc2c[nH]cn2)NC(=O)[C@H](C(C)C)NC(=O)CNC(=O)[C@H](CCC(=O)O)NC(=O)[C@H](CCCCN)NC(=O)[C@H](CC(C)C)NC1=O [H-CILKEGVHGV-SEAon (via SEAE thioester)],"ring closure, yield over several steps","[1]; from CC[C@H](C)[C@H](NC(=O)[C@@H](N)CS)C(=O)N[C@@H](CC(C)C)C(=O)N[C@@H](CCCCN)C(=O)N[C@@H](CCC(=O)O)C(=O)NCC(=O)N[C@H](C(=O)N[C@@H](Cc1c[nH]cn1)C(=O)NCC(=O)N[C@H](C(=O)SCCNCCS)C(C)C)C(C)C, 30-membered ring, 0.067 h",46%
same,"ring closure, conversion by HPLC",[2]; from CC[C@H](C)[C@H](NC(=O)[C@@H](N)CS)C(=O)N[C@@H](CC(C)C)C(=O)N[C@@H](CCCCN)C(=O)N[C@@H](CCC(=O)O)C(=O)NCC(=O)N[C@H](C(=O)N[C@@H](Cc1c[nH]cn1)C(=O)NCC(=O)N[C@H](C(=O)SCCNCCS)C(C)C)C(C)C,73
CC[C@H](C)[C@@H]1NC(=O)[C@H](CS)NC(=O)[C@H](C(C)C)NC(=O)CNC(=O)[C@H](Cc2c[nH]cn2)NC(=O)[C@H](C(C)C)NC(=O)[C@@H]2CCCN2C(=O)[C@H](CCC(=O)O)NC(=O)[C@H](CCCCN)NC(=O)[C@H](CC(C)C)NC1=O [H-CILKEPVHGV-SEAon (via SEAE thioester)],"ring closure, yield over several steps","[1]; from CC[C@H](C)[C@H](NC(=O)[C@@H](N)CS)C(=O)N[C@@H](CC(C)C)C(=O)N[C@@H](CCCCN)C(=O)N[C@@H](CCC(=O)O)C(=O)N1CCC[C@H]1C(=O)N[C@H](C(=O)N[C@@H](Cc1c[nH]cn1)C(=O)NCC(=O)N[C@H](C(=O)SCCNCCS)C(C)C)C(C)C, 30-membered ring, 0.067 h",46%
same,"ring closure, conversion by HPLC",[2]; from CC[C@H](C)[C@H](NC(=O)[C@@H](N)CS)C(=O)N[C@@H](CC(C)C)C(=O)N[C@@H](CCCCN)C(=O)N[C@@H](CCC(=O)O)C(=O)N1CCC[C@H]1C(=O)N[C@H](C(=O)N[C@@H](Cc1c[nH]cn1)C(=O)NCC(=O)N[C@H](C(=O)SCCNCCS)C(C)C)C(C)C,56
H-CQPWSSMIPHEHSFLPSSYRGKDLQENY-SEAon (via SEAE thioester),"ring closure, yield over several steps","[1]; the molecule shown is the open-chain precursor, 84-membered ring, 0.25 h",41%
H-CRAIATRGFARALARRGV-SEAon (via SEAE thioester),"ring closure, yield over several steps","[1]; the molecule shown is the open-chain precursor, 54-membered ring, 0.067 h",37%
H-CRCICTRGFCRCLCRRGV-SEAon (via SEAE thioester),"ring closure, yield over several steps",[1]; [3],29%
H-CRCLCRRGVCRCICTRGF-SEAon (via SEAE thioester),"ring closure, yield over several steps",[1]; [3],23%
H-CTRGFCRCLCRRGVCRCI-SEAon (via SEAE thioester),"ring closure, yield over several steps",[1]; [3],34%
